Our source for the Activity and IC50 values is ChEMBL document CHEMBL5120804, “Total Syntheses and Anti-inflammatory Evaluations of Pongamosides A-C, Natural Furanoflavonoid Glucosides from Fruit of Pongamia pinnata (L.) Pierre” (J Nat Prod, 2022).

Calls of active or inactive are those of the source. No cut-off for these calls is given here.

The test system of test [1] is RAW264.7. The test can be described thus: Antiinflammatory activity in mouse RAW264.7 assessed as inhibition of LPS-induced NO production at 25 uM pretreated for 2 hrs followed by LPS addition and measured after 24 hrs. In kind it is functional, cell-based. The conditions noted are these: time 26.0 hrs.
Test [2] deals with RAW264.7. The experiment in a line: Antiinflammatory activity in mouse RAW264.7 assessed as inhibition of LPS-induced NO production pretreated for 2 hrs followed by LPS addition and measured after 24 hrs. In kind it is functional, cell-based.

For the molecule `COc1cc2c(=O)cc(-c3cccc(O)c3)oc2c2ccoc12`, the result in the test with RAW264.7 [1] was Active.
As a reminder, the IC50 is the concentration that gives 50% inhibition. Regarding `COc1c(-c2ccccc2)oc2c(cc(O)c3occc32)c1=O`, the IC50 with RAW264.7 [2] was found to be 22.2 µM. Moreover, the outcome in the test on RAW264.7 [1] was Active.
Take `COc1c(-c2ccccc2)oc2c(cc(O[C@@H]3O[C@H](CO)[C@@H](O)[C@H](O)[C@H]3O)c3occc32)c1=O`: the result with RAW264.7 [1] was Active.
`O=c1cc(-c2cccc(O)c2)oc2c1ccc1occc12`: the IC50 in the test with RAW264.7 [2] worked out at 27.3 µM. In addition, the result in the test with RAW264.7 [1] was Active.
